Assay results from patent publication US20120165331A1, “Di/tri-aza-spiro-C9-C11alkanes” (priority 2010, published 2012).

How the values were obtained:
[1] = target: T1, human orexin 1 receptor (Homo sapiens, UniProt O43613); assay: Calcium accumulation in cells (FLIPR), antagonism of orexin A, human orexin 1 receptor; format: cell-based; conditions: for inhibition at 10 µM: measured at a concentration of 10 μM of compound, read-out: FLIPR hOx1R % inhibition
T1 construct: expressed in transfected cells
T1 sequence (O43613 1-425): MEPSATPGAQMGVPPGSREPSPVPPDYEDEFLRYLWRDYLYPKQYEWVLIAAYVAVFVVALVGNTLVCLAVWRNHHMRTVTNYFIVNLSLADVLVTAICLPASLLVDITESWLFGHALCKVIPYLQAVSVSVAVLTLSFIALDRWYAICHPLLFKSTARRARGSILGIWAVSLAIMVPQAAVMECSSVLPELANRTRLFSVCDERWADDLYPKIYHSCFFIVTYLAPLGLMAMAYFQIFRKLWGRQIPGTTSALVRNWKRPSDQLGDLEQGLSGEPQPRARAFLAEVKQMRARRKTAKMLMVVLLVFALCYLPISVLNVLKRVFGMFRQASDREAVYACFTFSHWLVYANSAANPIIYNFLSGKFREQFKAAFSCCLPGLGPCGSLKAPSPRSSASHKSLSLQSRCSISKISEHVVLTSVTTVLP

[2] = target: T2, human orexin 2 receptor (Homo sapiens, UniProt O43614); assay: Calcium accumulation in cells (FLIPR), antagonism of orexin A, human orexin 2 receptor; format: cell-based; conditions: for Ki: calcium accumulation, antagonism of orexin A, Cheng-Prusoff corrected, read-out: FLIPR hOx2R Ki
T2 construct: expressed in transfected cells
T2 sequence (O43614 1-444): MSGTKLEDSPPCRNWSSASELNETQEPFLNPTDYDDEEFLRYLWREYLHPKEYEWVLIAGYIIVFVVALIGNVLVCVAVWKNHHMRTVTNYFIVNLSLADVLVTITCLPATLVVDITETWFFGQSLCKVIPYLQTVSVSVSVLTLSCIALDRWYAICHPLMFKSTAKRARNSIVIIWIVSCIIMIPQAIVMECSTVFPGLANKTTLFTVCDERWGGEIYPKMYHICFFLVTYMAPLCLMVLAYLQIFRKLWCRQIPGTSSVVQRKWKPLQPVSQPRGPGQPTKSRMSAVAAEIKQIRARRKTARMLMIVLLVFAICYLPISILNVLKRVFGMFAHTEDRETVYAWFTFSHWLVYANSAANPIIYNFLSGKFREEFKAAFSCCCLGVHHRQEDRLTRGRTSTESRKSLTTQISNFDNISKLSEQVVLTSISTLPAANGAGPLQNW

**Q.** For `Cc1ccc(C)c(CN2C(=O)COCC23CCN(c2cncc(C)n2)CC3)c1` [Example 8.13, 1-(2,5-Dimethylbenzyl)-9-(6-methylpyrazin-2-yl)-4-oxa-1,9-diazaspiro[5.5]undecan-2-one], which inhibition at 10 µM [1] is on record?
**A.** Its inhibition at 10 µM is under 10%.

**Q.** And the Ki [2]?
**A.** Its Ki is 405 nM.

**Q.** Which results are given for `Cc1cncc(N2CCC3(CC2)COCC(=O)N3Cc2cccc3[nH]ccc23)n1` [Example 8.14, 1-((1H-Indol-4-yl)methyl)-9-(6-methylpyrazin-2-yl)-4-oxa-1,9-diazaspiro[5.5]undecan-2-one]?
**A.** inhibition at 10 µM [1]: 14%; Ki [2]: 506 nM

**Q.** What does the source list for `N#Cc1ccnc(N2CCC3(CC2)COCC(=O)N3Cc2cccc3[nH]ccc23)c1` [Example 8.16, 2-(1-((1H-Indol-4-yl)methyl)-2-oxo-4-oxa-1,9-diazaspiro[5.5]undecan-9-yl)isonicotinonitrile]?
**A.** inhibition at 10 µM [1]: < 10%; Ki [2]: 1020 nM

**Q.** `N#Cc1cccc(N2CCC3(CC2)COCC(=O)N3Cc2cccc3[nH]ccc23)n1` [Example 8.17, 6-(1-((1H-Indol-4-yl)methyl)-2-oxo-4-oxa-1,9-diazaspiro[5.5]undecan-9-yl)picolinonitrile] was tested. Which inhibition at 10 µM [1] did it give?
**A.** Its inhibition at 10 µM is 40%.

**Q.** What about the Ki [2] of the same molecule?
**A.** The Ki was 584 nM.

**Q.** For `N#Cc1ccnc(N2CCC3(CC2)COCC(=O)N3Cc2cccc3[nH]ccc23)n1` [Example 8.18, 2-(1-((1H-Indol-4-yl)methyl)-2-oxo-4-oxa-1,9-diazaspiro[5.5]undecan-9-yl)pyrimidine-4-carbonitrile], which inhibition at 10 µM [1] is on record?
**A.** The inhibition at 10 µM was 25%.

**Q.** What about the Ki [2] of the same molecule?
**A.** The Ki was 1010 nM.

**Q.** For `Cc1ccnc(N2CCC3(CC2)COCC(=O)N3Cc2cccc3[nH]ccc23)n1` [Example 8.19, 1-((1H-Indol-4-yl)methyl)-9-(4-methylpyrimidin-2-yl)-4-oxa-1,9-diazaspiro[5.5]undecan-2-one], which inhibition at 10 µM [1] is on record?
**A.** Its inhibition at 10 µM is 28%.

**Q.** And the Ki [2]?
**A.** Its Ki is 697 nM.

**Q.** `O=C1OCC2(CCN(c3cnc4ccccc4n3)CC2)N1Cc1c[nH]c2ccccc12` [Example 8.21] was tested. Which inhibition at 10 µM [1] did it give?
**A.** The inhibition at 10 µM was 33%.

**Q.** What about the Ki [2] of the same molecule?
**A.** The Ki was 480 nM.

**Q.** How did the inhibition at 10 µM [1] turn out when `Cc1cncc(N2CCC3(CC2)COC(=O)N3Cc2c[nH]c3ccccc23)n1` [Example 8.23, 1-((1H-Indol-3-yl)methyl)-8-(6-methylpyrazin-2-yl)-3-oxa-1,8-diazaspiro[4.5]decan-2-one] was run?
**A.** Its inhibition at 10 µM is under 10%.

**Q.** What about the inhibition at 10 µM ([2]; measured at a concentration of 10 μM of compound, read-out: FLIPR hOx2R % inhibition) of the same molecule?
**A.** The inhibition at 10 µM was 20%.

**Q.** `Cc1cc(C)nc(N2CCC3(CC2)COC(=O)N3Cc2c[nH]c3ccccc23)n1` [Example 8.24, 1-((1H-Indol-3-yl)methyl)-8-(4,6-dimethylpyrimidin-2-yl)-3-oxa-1,8-diazaspiro[4.5]decan-2-one] was tested. Which inhibition at 10 µM [1] did it give?
**A.** Its inhibition at 10 µM is 21%.

**Q.** What about the Ki [2] of the same molecule?
**A.** The Ki was 448 nM.

**Q.** How did the inhibition at 10 µM [1] turn out when `Cc1cncc(N2CCC3(CC2)COC(=O)N3Cc2cccc3[nH]ccc23)n1` [Example 8.25, 1-((1H-Indol-4-yl)methyl)-8-(6-methylpyrazin-2-yl)-3-oxa-1,8-diazaspiro[4.5]decan-2-one] was run?
**A.** Its inhibition at 10 µM is under 10%.

**Q.** What about the Ki [2] of the same molecule?
**A.** The Ki was 675 nM.

**Q.** Which results are given for `O=C1CCC2(CCN(c3cnc4ccccc4n3)C2)N1Cc1cccc2[nH]ccc12` (stereo not shown) [Example 9.1]?
**A.** Ki ([1]; calcium accumulation, antagonism of orexin A, Cheng-Prusoff corrected, read-out: FLIPR hOx1R Ki): 666 nM; Ki [2]: 1380 nM
